Measurements reported in US20090105305A1, “Therapeutic Agents - 550” (AstraZeneca AB, priority 2006, published 2009).

Target: T1, human Fatty Acid Synthase (Homo sapiens, UniProt P49327)
T1 construct: made in house
Experiment: Human FAS enzyme assay (decrease in NADPH fluorescence)
Assay type: biochemical
Conditions: compounds excluded from the claims by proviso
Summary of the method: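 In-house human FAS (0.4 μg) was preincubated 15 min at RT with compound and NADPH (added at 166.6 μM) in 0.1 M Tris pH 7.5, 1 mM glutathione, 0.05% BSA. Malonyl-/acetyl-CoA (500/150 μM in substrate mix) was then added for 60 min. Readout was NADPH fluorescence loss (ex 340/em 460) over a time-zero read, with IC50 from a sigmoid fit.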

T1 sequence (P49327 whole entry): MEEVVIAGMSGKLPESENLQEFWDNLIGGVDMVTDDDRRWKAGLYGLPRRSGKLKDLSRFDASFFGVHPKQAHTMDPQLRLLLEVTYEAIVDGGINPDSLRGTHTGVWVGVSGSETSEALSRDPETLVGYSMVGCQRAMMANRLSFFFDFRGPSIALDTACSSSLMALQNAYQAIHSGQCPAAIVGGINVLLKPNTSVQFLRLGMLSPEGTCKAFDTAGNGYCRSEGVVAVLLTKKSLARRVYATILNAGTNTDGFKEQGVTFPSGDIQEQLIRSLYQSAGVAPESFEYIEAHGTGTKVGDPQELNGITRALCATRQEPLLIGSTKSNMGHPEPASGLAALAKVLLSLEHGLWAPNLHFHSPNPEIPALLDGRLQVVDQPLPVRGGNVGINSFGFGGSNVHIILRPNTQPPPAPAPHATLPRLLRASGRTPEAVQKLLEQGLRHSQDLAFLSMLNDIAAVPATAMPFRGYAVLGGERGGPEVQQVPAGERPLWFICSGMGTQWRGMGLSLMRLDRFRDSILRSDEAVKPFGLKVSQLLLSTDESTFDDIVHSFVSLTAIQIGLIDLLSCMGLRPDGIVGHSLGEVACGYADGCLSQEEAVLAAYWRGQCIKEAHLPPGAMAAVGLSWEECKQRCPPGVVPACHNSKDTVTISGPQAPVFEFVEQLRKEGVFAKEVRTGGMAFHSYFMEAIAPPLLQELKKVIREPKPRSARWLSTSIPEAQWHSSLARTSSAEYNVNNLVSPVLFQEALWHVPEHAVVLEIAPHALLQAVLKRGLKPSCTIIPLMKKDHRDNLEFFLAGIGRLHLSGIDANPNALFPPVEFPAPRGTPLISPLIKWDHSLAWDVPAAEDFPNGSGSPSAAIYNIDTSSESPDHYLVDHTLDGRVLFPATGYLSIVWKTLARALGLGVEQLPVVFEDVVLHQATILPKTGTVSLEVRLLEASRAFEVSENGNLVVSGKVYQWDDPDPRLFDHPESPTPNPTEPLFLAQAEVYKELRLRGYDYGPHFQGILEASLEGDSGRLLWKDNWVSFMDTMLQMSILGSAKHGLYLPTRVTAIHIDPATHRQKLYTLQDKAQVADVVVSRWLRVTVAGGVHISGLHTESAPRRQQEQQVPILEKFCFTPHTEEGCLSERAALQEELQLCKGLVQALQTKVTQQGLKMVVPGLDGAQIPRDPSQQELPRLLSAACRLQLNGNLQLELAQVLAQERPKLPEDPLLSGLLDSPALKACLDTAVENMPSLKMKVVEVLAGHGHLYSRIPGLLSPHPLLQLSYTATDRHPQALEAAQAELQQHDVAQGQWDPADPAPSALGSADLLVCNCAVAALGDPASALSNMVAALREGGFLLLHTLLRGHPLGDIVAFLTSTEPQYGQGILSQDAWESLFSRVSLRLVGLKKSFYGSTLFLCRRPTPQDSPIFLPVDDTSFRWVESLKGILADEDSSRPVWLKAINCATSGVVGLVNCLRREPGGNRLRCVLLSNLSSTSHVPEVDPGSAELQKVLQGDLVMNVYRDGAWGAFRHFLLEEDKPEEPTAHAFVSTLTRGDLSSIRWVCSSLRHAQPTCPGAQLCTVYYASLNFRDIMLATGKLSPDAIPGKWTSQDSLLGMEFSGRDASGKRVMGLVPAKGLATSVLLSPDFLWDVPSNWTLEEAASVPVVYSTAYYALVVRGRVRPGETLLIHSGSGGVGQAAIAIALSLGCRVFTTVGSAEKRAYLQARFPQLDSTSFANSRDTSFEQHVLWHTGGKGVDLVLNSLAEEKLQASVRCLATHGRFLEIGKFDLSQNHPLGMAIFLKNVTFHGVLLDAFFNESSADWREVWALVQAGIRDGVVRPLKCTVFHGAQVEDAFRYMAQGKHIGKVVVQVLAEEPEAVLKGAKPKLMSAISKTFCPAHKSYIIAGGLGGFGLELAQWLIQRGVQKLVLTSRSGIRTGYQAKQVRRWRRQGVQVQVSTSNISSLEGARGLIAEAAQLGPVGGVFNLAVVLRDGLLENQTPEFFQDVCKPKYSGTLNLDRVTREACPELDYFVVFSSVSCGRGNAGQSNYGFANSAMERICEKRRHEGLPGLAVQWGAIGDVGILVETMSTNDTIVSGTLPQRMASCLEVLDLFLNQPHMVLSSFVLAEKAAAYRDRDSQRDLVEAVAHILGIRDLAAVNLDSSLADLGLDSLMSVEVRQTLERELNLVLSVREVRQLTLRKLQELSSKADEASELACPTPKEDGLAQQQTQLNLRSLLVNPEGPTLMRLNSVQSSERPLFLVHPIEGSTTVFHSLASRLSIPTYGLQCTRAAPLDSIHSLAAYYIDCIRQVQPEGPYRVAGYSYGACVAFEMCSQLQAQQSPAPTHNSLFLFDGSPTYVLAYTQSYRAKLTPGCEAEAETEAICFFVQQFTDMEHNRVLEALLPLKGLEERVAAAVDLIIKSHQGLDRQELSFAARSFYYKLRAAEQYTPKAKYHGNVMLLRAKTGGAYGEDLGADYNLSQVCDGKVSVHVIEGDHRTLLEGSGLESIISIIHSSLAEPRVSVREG

Q: For `COc1cccc(C2CCN(C(=O)c3ccc(C)c(NS(C)(=O)=O)c3)CC2)c1` [N-[5-[4-(3-methoxyphenyl)piperidine-1-carbonyl]-2-methylphenyl]methanesulfonamide], which “IC50s in the range of about 0.001 μM to about 30 μM” value (“IC50s in the range” below) is on record?
A: The value was “do not have IC50s in the range of about 0.001 μM to about 30 μM”.

Q: How did the “IC50s in the range” value turn out when `Cc1ccc(C(=O)N2CCC(O)(c3ccc(Cl)cc3)CC2)cc1NS(C)(=O)=O` [N-[5-[4-(4-chlorophenyl)-4-hydroxypiperidine-1-carbonyl]-2-methylphenyl]methanesulfonamide] was run?
A: The value was “do not have IC50s in the range of about 0.001 μM to about 30 μM”.

Q: For `Cc1ccc(C(=O)N2CCC(c3ccc(C#N)cc3C)CC2)cc1NS(C)(=O)=O` [N-[5-[4-(4-cyano-2-methylphenyl)piperidine-1-carbonyl]-2-methylphenyl]methanesulfonamide], which “IC50s in the range” value is on record?
A: The value was “do not have IC50s in the range of about 0.001 μM to about 30 μM”.

Q: `Cc1ccc(C(=O)N2CCC(c3cc(F)c(C#N)c(F)c3)CC2)cc1NS(C)(=O)=O` [N-[5-[4-(4-cyano-3,5-difluorophenyl)piperidine-1-carbonyl]-2-methylphenyl]methanesulfonamide] was tested. Which “IC50s in the range” value did it give?
A: Its value is “do not have IC50s in the range of about 0.001 μM to about 30 μM”.

Q: How did the “IC50s in the range” value turn out when `CS(=O)(=O)Cc1ccc(C(=O)N2CCC(c3ccc(C#N)cc3)CC2)cc1NS(C)(=O)=O` [N-[5-[4-(4-cyanophenyl)piperidine-1-carbonyl]-2-(methylsulfonylmethyl)phenyl]methanesulfonamide] was run?
A: The value was “do not have IC50s in the range of about 0.001 μM to about 30 μM”.

Q: With `N#Cc1ccc(C2CCN(C(=O)c3ccc(OC(F)(F)F)c(NS(=O)(=O)Cc4ccccc4)c3)CC2)cc1` [N-[5-[4-(4-cyanophenyl)piperidine-1-carbonyl]-2-(trifluoromethoxy)phenyl]-1-phenylmethanesulfonamide] as the compound, how does the “IC50s in the range” value read?
A: The value was “do not have IC50s in the range of about 0.001 μM to about 30 μM”.

Q: For `CS(=O)(=O)Nc1cc(C(=O)N2CCC(c3ccc(C#N)cc3)CC2)ccc1OC(F)(F)F` [N-[5-[4-(4-cyanophenyl)piperidine-1-carbonyl]-2-(trifluoromethoxy)phenyl]methanesulfonamide], which “IC50s in the range” value is on record?
A: The value was “do not have IC50s in the range of about 0.001 μM to about 30 μM”.

Q: With `CS(=O)(=O)Nc1cc(C(=O)N2CCC(c3ccc(C#N)cc3)CC2)ccc1F` [N-[5-[4-(4-cyanophenyl)piperidine-1-carbonyl]-2-fluorophenyl]methanesulfonamide] as the compound, how does the “IC50s in the range” value read?
A: The value was “do not have IC50s in the range of about 0.001 μM to about 30 μM”.

Q: Which “IC50s in the range” value does the source give for `C[S+]([O-])c1ccc(C(=O)N2CCC(c3ccc(C#N)cc3)CC2)cc1NS(C)(=O)=O` (centres unmarked) [N-[5-[4-(4-cyanophenyl)piperidine-1-carbonyl]-2-methylsulfinylphenyl]methanesulfonamide] here?
A: The value was “do not have IC50s in the range of about 0.001 μM to about 30 μM”.

Q: For `Cc1ccc(C(=O)N2CCC(c3ccc(C#CC(C)(C)N)cc3)CC2)cc1NS(C)(=O)=O` [N-[5-[4-[4-(3-amino-3-methylbut-1-ynyl)phenyl]piperidine-1-carbonyl]-2-methylphenyl]methanesulfonamide], which “IC50s in the range” value is on record?
A: The value was “do not have IC50s in the range of about 0.001 μM to about 30 μM”.

Q: How did the “IC50s in the range” value turn out when `Cc1ccc(C(=O)N2CCC(c3ccc(CN)cc3)CC2)cc1NS(C)(=O)=O` [N-[5-[4-[4-(aminomethyl)phenyl]piperidine-1-carbonyl]-2-methylphenyl]methanesulfonamide] was run?
A: Its value is “do not have IC50s in the range of about 0.001 μM to about 30 μM”.

Q: `Cc1ccc(C(=O)N2CCC(c3ccc(S(=O)(=O)N4CC[C@@H](O)C4)cc3)CC2)cc1NS(C)(=O)=O` [N-[5-[4-[4-[(3R)-3-hydroxypyrrolidin-1-yl]sulfonylphenyl]piperidine-1-carbonyl]-2-methylphenyl]methanesulfonamide] was tested. Which “IC50s in the range” value did it give?
A: Its value is “do not have IC50s in the range of about 0.001 μM to about 30 μM”.

Q: For `Cc1ccc(C(=O)N2CCC(c3ccc(C#N)c(C(F)(F)F)c3)CC2)cc1NS(C)(=O)=O` [N-[5-[4-[4-cyano-3-(trifluoromethyl)phenyl]piperidine-1-carbonyl]-2-methylphenyl]methanesulfonamide], which “IC50s in the range” value is on record?
A: The value was “do not have IC50s in the range of about 0.001 μM to about 30 μM”.

Q: For `Cc1ccc(C(=O)N2CCC(O)(c3cccc(C(F)(F)F)c3)CC2)cc1NS(C)(=O)=O` [N-[5-[4-hydroxy-4-[3-(trifluoromethyl)phenyl]piperidine-1-carbonyl]-2-methylphenyl]methanesulfonamide], which “IC50s in the range” value is on record?
A: The value was “do not have IC50s in the range of about 0.001 μM to about 30 μM”.
